Experimental data published in patent US8222247B2, “Modulators of glucocorticoid receptor, AP-1, and/or NF-kappabeta activity and use thereof” (Bristol-Myers Squibb Company, priority 2006, dated 2012).
Read-outs that look alike come from different tables or passages of the source.

System: AP-1 induced transcriptional activity
Assay: Cellular Transrepressional Assay (AP-1 luciferase reporter in A549 cell, PMA activated)
Format: cell-based
Conditions: pAP-1-Luc; for Emax / AP-1 Max % inh (Cellular Transrepression Assay): maximum inhibition, PMA; for Emax: read-out: AP-1 Max % inh (Cellular Transrepression Assay); for EC50: 10 ng/ml PMA, 7 hours, read-out: AP-1 EC50, nM (Cellular Transrepression Assay)
Procedure: Cellular Transrepressional Assay
To measure the ability of test molecules to inhibit AP-1 induced transcriptional activity we utilized an A549 cell which was stably transfected with a plasmid containing 7×AP-1 DNA binding sites (pAP-1-Luc plasmid, Stratagene Co. La Jolla, Calif.) followed by the gene for luciferase. Cells were activated with 10 ng/ml of phorbol myristic acid (PMA) plus or minus test molecules for 7 hours. After 7 hours a luciferase reagent was added to measure luciferase enzymatic activity in the cell. After a 10 minute incubation of luciferase reagent with cells, luminescence was measured in a TopCount luminescence counter. Repression of AP-1 activity was calculated as the percentage decrease in the signal induced by PMA alone. Test molecules were analyzed in the concentration range from 0.1 nM to 40 μM. EC50s were determined by using standard curve fitting methods such as Excel fit (Microsoft Co.). An EC50 is the test molecule concentration at which there is a 50% repression of the maximal inhibition of transcription, i.e. a 50% reduction of AP-1 activity.

| SMILES | Emax (Homo sapiens, A549, 7 h) [%] | EC50 (Homo sapiens, A549, 7 h) [nM] | EC50 [nM] | AP-1 Max % inh (Cellular Transrepression Assay) [% inh] |
| --- | --- | --- | --- | --- |
| CC(C)(C(=O)Nc1nccs1)C(c1ccccc1)c1ccc(N2CCOCC2)nc1 (single isomer, unassigned) [Example 21, 2,2-Dimethyl-3-(6-(4-morpholinyl)-3-pyridinyl)-3-phenyl-N-1,3-thiazol-2-ylpropanamide] | 23.9 | 40.5 |  |  |
| CC(C)(C(=O)Nc1nncs1)C(c1ccccc1)c1ccc(N2CCOCC2)nc1 (single isomer, unassigned) [Example 23, 2,2-Dimethyl-3-(6-(4-morpholinyl)-3-pyridinyl)-3-phenyl-N-1,3,4-thiadiazol-2-ylpropanamide] | 29.4 | 142 |  |  |
| CCN(C)C(=O)c1ccc(-c2ccc(C(c3cccc(F)c3)C(C)C(=O)Nc3nncs3)s2)cc1 (single isomer, unassigned) [Example 98, N-ethyl-4-(5-(1-(3-fluorophenyl)-2-methyl-3-oxo-3-(1,3,4-thiadiazol-2-ylamino)propyl)-2-thienyl)-N-methylbenzamide] | 55.3 |  | 15.8 |  |
| CCN(C)C(=O)c1ccc(-c2ccc(C(c3cccc(F)c3)C(C)C(=O)Nc3nncs3)s2)cc1 (single isomer, unassigned) [Example 99, N-ethyl-4-(5-(1-(3-fluorophenyl)-2-methyl-3-oxo-3-(1,3,4-thiadiazol-2-ylamino)propyl)-2-thienyl)-N-methylbenzamide] |  |  | 279 | 49.36 |
| CC(C(=O)Nc1nncs1)C(c1cccc(F)c1)c1ccc(-c2ccc(C(=O)N3CCOCC3)cc2)s1 (single isomer, unassigned) [Example 100, 3-(3-fluorophenyl)-2-methyl-3-(5-(4-(4-morpholinylcarbonyl)phenyl)-2-thienyl)-N-1,3,4-thiadiazol-2-ylpropanamide] | 50.6 |  | 8.8 |  |
| CC(C(=O)Nc1nncs1)C(c1cccc(F)c1)c1ccc(-c2ccc(C(=O)N3CCOCC3)cc2)s1 (single isomer, unassigned) [Example 101, 3-(3-fluorophenyl)-2-methyl-3-(5-(4-(4-morpholinylcarbonyl)phenyl)-2-thienyl)-N-1,3,4-thiadiazol-2-ylpropanamide] |  |  | 576 | 51.00 |
| CC(C(=O)Nc1nncs1)C(c1cccc(F)c1)c1ccc(-c2ccc(C(=O)N(C)C)cc2)s1 (single isomer, unassigned) [Example 102, 4-(5-(1-(3-fluorophenyl)-2-methyl-3-oxo-3-(1,3,4-thiadiazol-2-ylamino)propyl)-2-thienyl)-N,N-dimethylbenzamide] | 52.6 |  | 10.6 |  |
| CC(C(=O)Nc1nncs1)C(c1cccc(F)c1)c1ccc(-c2ccc(C(=O)N(C)C)cc2)s1 (single isomer, unassigned) [Example 103, 4-(5-(1-(3-fluorophenyl)-2-methyl-3-oxo-3-(1,3,4-thiadiazol-2-ylamino)propyl)-2-thienyl)-N,N-dimethylbenzamide] |  |  | 879 | 49.86 |
| CC(C(=O)Nc1nncs1)C(c1cccc(F)c1)c1ccc(-c2ccc(C(=O)N(C)C)c(Cl)c2)s1 (single isomer, unassigned) [Example 104, 2-chloro-4-(5-(1-(3-fluorophenyl)-2-methyl-3-oxo-3-(1,3,4-thiadiazol-2-ylamino)propyl)-2-thienyl)-N,N-dimethylbenzamide] | 49.5 |  | 38.7 |  |
| CC(C(=O)Nc1nncs1)C(c1cccc(F)c1)c1ccc(-c2ccc(C(=O)N(C)C)c(Cl)c2)s1 (single isomer, unassigned) [Example 105, 2-chloro-4-(5-(1-(3-fluorophenyl)-2-methyl-3-oxo-3-(1,3,4-thiadiazol-2-ylamino)propyl)-2-thienyl)-N,N-dimethylbenzamide] |  |  | 446 | 48.50 |
| CC(C(=O)Nc1nncs1)C(c1ccccc1)c1ccc(-c2ccc(C(=O)N3CCOCC3)cc2)s1 (single isomer, unassigned) [Example 144, 2-methyl-3-(5-(4-(4-morpholinylcarbonyl)phenyl)-2-thienyl)-3-phenyl-N-1,3,4-thiadiazol-2-ylpropanamide] |  |  | 5.98 | 49.49 |
| CC(C(=O)Nc1nncs1)C(c1ccccc1)c1ccc(-c2ccc(C(=O)N3CCOCC3)cc2)s1 (single isomer, unassigned) [Example 145, 2-methyl-3-(5-(4-(4-morpholinylcarbonyl)phenyl)-2-thienyl)-3-phenyl-N-1,3,4-thiadiazol-2-ylpropanamide] |  |  | 64.6 | 25.24 |
| CC(C(=O)Nc1nncs1)C(c1ccccc1)c1ccc(-c2ccc(C(=O)N(C)C)cc2)s1 (single isomer, unassigned) [Example 146, N,N-dimethyl-4-(5-(2-methyl-3-oxo-1-phenyl-3-(1,3,4-thiadiazol-2-ylamino)propyl)-2-thienyl)benzamide] | 59.1 |  | 14.6 |  |
| CC(C(=O)Nc1nncs1)C(c1ccccc1)c1ccc(-c2ccc(C(=O)N(C)C)cc2)s1 (single isomer, unassigned) [Example 147, N,N-dimethyl-4-(5-(2-methyl-3-oxo-1-phenyl-3-(1,3,4-thiadiazol-2-ylamino)propyl)-2-thienyl)benzamide] |  |  | 168 | 48.44 |
| CC(C(=O)Nc1nncs1)C(c1ccccc1)c1ccc(-c2ccc(C(=O)N(C)C)c(Cl)c2)s1 (single isomer, unassigned) [Example 148, 2-chloro-N,N-dimethyl-4-(5-(2-methyl-3-oxo-1-phenyl-3-(1,3,4-thiadiazol-2-ylamino)propyl)-2-thienyl)benzamide] | 51.5 |  | 24.6 |  |
| CC(C(=O)Nc1nncs1)C(c1ccccc1)c1ccc(-c2ccc(C(=O)N(C)C)c(Cl)c2)s1 (single isomer, unassigned) [Example 149, 2-chloro-N,N-dimethyl-4-(5-(2-methyl-3-oxo-1-phenyl-3-(1,3,4-thiadiazol-2-ylamino)propyl)-2-thienyl)benzamide] |  |  | 216 | 54.20 |
| CCN(C)C(=O)c1ccc(-c2ccc(C(c3ccccc3)C(C)C(=O)Nc3nncs3)s2)cc1 (single isomer, unassigned) [Example 150, N-ethyl-N-methyl-4-(5-(2-methyl-3-oxo-1-phenyl-3-(1,3,4-thiadiazol-2-ylamino)propyl)-2-thienyl)benzamide] | 57.2 |  | 17.5 |  |
| CCN(C)C(=O)c1ccc(-c2ccc(C(c3ccccc3)C(C)C(=O)Nc3nncs3)s2)cc1 (single isomer, unassigned) [Example 151, N-ethyl-N-methyl-4-(5-(2-methyl-3-oxo-1-phenyl-3-(1,3,4-thiadiazol-2-ylamino)propyl)-2-thienyl)benzamide] |  |  | 203 | 48.08 |
| CC(C)(C(=O)Nc1nc(Cc2ccc(-c3ccncc3)cc2)cs1)C(c1ccccc1)c1ccncc1 (stereo not shown) [Example 5, 2,2-dimethyl-3-phenyl-3-(4-pyridinyl)-N-(4-(4-(4-pyridinyl)benzyl)-1,3-thiazol-2-yl)propanamide] | 89.9 | 18.7 |  |  |
| CC(C)(C(=O)Nc1nccs1)C(c1cccc(F)c1)c1ccc(N2CCOCC2)s1 (stereo not shown) [Example 10, 3-(3-fluorophenyl)-2,2-dimethyl-3-(5-(4-morpholinyl)-2-thienyl)-N-1,3-thiazol-2-ylpropanamide] | 40 | 700 |  |  |
